For one assay, the system named is PC-3. Description: Cytotoxicity against human PC3 cells assessed as inhibition of cell proliferation after 48 hrs by sulforhodamine-B assay. Format: functional, cell-based. The note with it: PC-3, 48 h.
A further assay concerns A549. Nature of the assay: Cytotoxicity against human A549 cells assessed as inhibition of cell proliferation after 48 hrs by sulforhodamine-B assay. It counts as functional, cell-based. The following applies: A549, 48 h. For orientation: In SRB staining, fixed cells bind dye roughly in proportion to their protein.
A further assay concerns Caco-2. Nature of the assay: Cytotoxicity against human Caco2 cells assessed as inhibition of cell proliferation after 48 hrs by sulforhodamine-B assay. The note with it: Caco-2, 48 h. Format: functional, cell-based.
The test system of a further assay is THP-1. Nature of the assay: Cytotoxicity against human THP1 cells assessed as inhibition of cell proliferation after 48 hrs by sulforhodamine-B assay. It counts as functional, cell-based. The note with it: THP-1, 48 h.
For assay [1], the system named is HL-60. Description: Induction of apoptosis in human HL60 cells assessed as loss of mitochondrial membrane potential at 1 uM after 24 hrs by Rhodamine 123 staining based flow cytometry (reference value: 7%). Format: functional. (Flow cytometry measures light scatter and fluorescence of single cells or particles in a stream.)
Assay [2] has as its system HL-60. Description: Induction of apoptosis in human HL60 cells assessed as intact mitochondrial membrane potential at 1 uM after 24 hrs by Rhodamine 123 staining based flow cytometry (reference value: 93.6%). It counts as functional.
The test system of assay [3] is HL-60. Description: Induction of apoptosis in human HL60 cells assessed as accumulation of DNA at sub-G0 phase at 1 uM after 24 hrs by propidium iodide staining based flow cytometry (Rvb= 4.2%). Format: functional.
For assay [4], the system named is HL-60. Nature of the assay: Induction of apoptosis in human HL60 cells assessed as accumulation of DNA at sub-G0 phase at 100 uM after 24 hrs by propidium iodide staining based flow cytometry (Rvb= 4.2%). Format: functional.
The subject of assay [5] is HL-60. Nature of the assay: Induction of apoptosis in human HL60 cells assessed as condensation and fragmentation of nuclei at 50 to 100 uM after 24 hrs by DAPI staining based fluorescence microscopic analysis. Format: functional, cell-based.
Assay [6] relates to HL-60. Nature of the assay: Induction of apoptosis in human HL60 cells assessed as loss of mitochondrial membrane potential at 10 uM after 24 hrs by Rhodamine 123 staining based flow cytometry (reference value: 7%). Format: functional.
The subject of assay [7] is HL-60. Description: Induction of apoptosis in human HL60 cells assessed as intact mitochondrial membrane potential at 30 uM after 24 hrs by Rhodamine 123 staining based flow cytometry (reference value: 93.6%). It counts as functional.
Assay [8] relates to HL-60. Description: Induction of apoptosis in human HL60 cells assessed as accumulation of DNA at sub-G0 phase at 50 uM after 24 hrs by propidium iodide staining based flow cytometry (Rvb= 4.2%). It counts as functional.
The test system of assay [9] is HL-60. Nature of the assay: Induction of apoptosis in human HL60 cells assessed as mitochondrial damage and loss of mitochondrial membrane potential after 24 hrs by Rhodamine 123 staining based flow cytometry. Format: functional, cell-based.
The test system of assay [10] is HL-60. Nature of the assay: Induction of apoptosis in human HL60 cells assessed as DNA fragmentation at 50 uM after 24 hrs by agarose gel electrophoresis analysis. Format: functional, cell-based.
Assay [11] relates to HL-60. Nature of the assay: Induction of apoptosis in human HL60 cells assessed as intact mitochondrial membrane potential at 10 uM after 24 hrs by Rhodamine 123 staining based flow cytometry (reference value: 93.6%). Format: functional.
Assay [12] relates to HL-60. Description: Induction of apoptosis in human HL60 cells assessed as accumulation of DNA at sub-G0 phase at 30 uM after 24 hrs by propidium iodide staining based flow cytometry (Rvb= 4.2%). Format: functional.
Assay [13] concerns HL-60. Description: Induction of apoptosis in human HL60 cells assessed as loss of mitochondrial membrane potential at 50 uM after 24 hrs by Rhodamine 123 staining based flow cytometry (reference value: 7%). Format: functional.
Assay [14] relates to HL-60. Nature of the assay: Induction of apoptosis in human HL60 cells assessed as accumulation of DNA at sub-G0 phase at 10 uM after 24 hrs by propidium iodide staining based flow cytometry (Rvb= 4.2%). It counts as functional.
In assay [15] the test system is HL-60. Nature of the assay: Induction of apoptosis in human HL60 cells assessed as intact mitochondrial membrane potential at 50 uM after 24 hrs by Rhodamine 123 staining based flow cytometry (reference value: 93.6%). It counts as functional.
Assay [16] relates to HL-60. Description: Induction of apoptosis in human HL60 cells assessed as loss of mitochondrial membrane potential at 30 uM after 24 hrs by Rhodamine 123 staining based flow cytometry (reference value: 7%). Format: functional.

Structures are written as SMILES. pIC50: −log10 of the molar value. Active and inactive are the calls of the source. No cut-off for these calls is given here.

Take `CCO[C@H]1C[C@@H](c2coc3ccc(F)cc3c2=O)N(c2ccccc2)O1` (relative stereo): the negative-log IC50 (pIC50) (as a rule, −log10 of the IC50, conventionally taken in molar units) in the assay on PC-3 was 4.50; with A549 it was 4.58; in the assay on Caco-2 it was under 4.22; in the assay with THP-1, under 4.22.

Consider `N#C[C@H]1C[C@@H](c2coc3ccc(Cl)cc3c2=O)N(c2ccccc2)O1` (relative stereo), for which the pIC50 is 4.39 with PC-3, 4.40 in the assay with A549, 4.41 in the assay with Caco-2 and 4.46 with THP-1.

Regarding `O=c1c([C@@H]2C[C@H](c3ccccc3)ON2c2ccccc2)coc2ccc(F)cc12` (relative stereo), the pIC50 with PC-3 was 4.31; with A549 it was 4.29; in the assay on Caco-2, 4.22; in the assay with THP-1, 4.26.

With `CCO[C@H]1C[C@@H](c2coc3cc(Cl)c(Cl)cc3c2=O)N(c2ccccc2)O1` (relative stereo), the pIC50 was under 4.22 with PC-3, 4.70 in the assay with A549, under 4.22 with Caco-2 and 4.78 in the assay on THP-1.

With `COC(=O)[C@@]1(C)C[C@@H](c2coc3ccc(Br)cc3c2=O)N(c2ccccc2)O1` (relative stereo), the pIC50 in the assay on PC-3 was under 4.22; in the assay with A549 it was 5.00; in the assay with Caco-2, under 4.22; with THP-1 it was 4.83.

On to `CO[C@@]12[C@H](COC(N)=O)C3=C(C(=O)C(C)=C(N)C3=O)N1C[C@@H]1N[C@@H]12` [MITOMYCIN], for which, in the assay on A549, the pIC50 was 6.40.

With `CC[C@@]1(O)C(=O)OCc2c1cc1n(c2=O)Cc2cc3ccccc3nc2-1` [CAMPTOTHECIN], the results for the Activity in the assay on HL-60 [1], with HL-60 [2] and with HL-60 [3] were 53.3%, 46.1% and 61.8%, respectively.

With `Cc1ccc2occ([C@@H]3C[C@H](c4ccccc4)ON3c3ccccc3)c(=O)c2c1` (relative stereo), the pIC50 is under 4.22 in the assay with PC-3, 4.31 with A549, 4.50 in the assay with Caco-2 and under 4.22 in the assay on THP-1.

For the compound `O=c1c([C@@H]2C[C@H](c3ccccc3)ON2c2ccccc2)coc2ccc(Br)cc12` (relative stereo), the pIC50 was 4.22 with PC-3, 4.29 in the assay on A549, under 4.22 in the assay with Caco-2 and 4.22 in the assay on THP-1.

Take `NC(=O)[C@H]1C[C@@H](c2coc3ccccc3c2=O)N(c2ccccc2)O1` (relative stereo): the pIC50 with PC-3, in the assay with A549, with Caco-2 and in the assay on THP-1 was under 4.22 in each case.

`CCO[C@H]1C[C@@H](c2coc3ccccc3c2=O)N(c2ccccc2)O1` (relative stereo): the pIC50 with PC-3, in the assay with A549, in the assay with Caco-2 and with THP-1 was under 4.22 throughout.

With `Cc1ccc2occ([C@@H]3[C@H]4C(=O)N(c5ccccc5)C(=O)[C@H]4ON3c3ccccc3)c(=O)c2c1`, the pIC50 in the assay with PC-3 is 4.95; in the assay on A549, under 4.22; in the assay on Caco-2, under 4.22; with THP-1, under 4.22.

For `O=C1[C@H]2[C@H](ON(c3ccccc3)[C@@H]2c2coc3ccc(F)cc3c2=O)C(=O)N1c1ccccc1` (relative stereo), the pIC50 in the assay on PC-3 is under 4.22; with A549, 4.87; in the assay on Caco-2, under 4.22; with THP-1 it was 4.36.

Regarding `COC(=O)[C@H]1C[C@@H](c2coc3ccccc3c2=O)N(c2ccccc2)O1` (relative stereo), the pIC50 in the assay on PC-3, in the assay with A549, with Caco-2 and with THP-1 was under 4.22 in each case.

As for `O=c1c([C@@H]2C[C@H](c3ccccc3)ON2c2ccccc2)coc2ccccc12` (relative stereo), the pIC50 in the assay with PC-3, with A549, with Caco-2 and in the assay with THP-1 was under 4.22 throughout.

For `CCO[C@H]1C[C@@H](c2coc3ccc(Br)cc3c2=O)N(c2ccccc2)O1` (relative stereo), the pIC50 with PC-3 is under 4.22; in the assay on A549, 4.67; in the assay on Caco-2 it was under 4.22; in the assay on THP-1, under 4.22.

As for `CCO[C@H]1C[C@@H](c2coc3ccc(C)cc3c2=O)N(c2ccccc2)O1` (relative stereo), the pIC50 is 4.41 in the assay on PC-3, 4.68 in the assay on A549, 4.51 in the assay on Caco-2 and 4.39 with THP-1.

With `O=c1c([C@@H]2C[C@H](c3ccccc3)ON2c2ccccc2)coc2cc(Cl)c(Cl)cc12` (relative stereo), the pIC50 with PC-3 is 4.49; in the assay on A549, 4.37; in the assay on Caco-2 it was 4.63; in the assay with THP-1 it was 4.42.

As to `O=C1[C@H]2[C@H](ON(c3ccccc3)[C@@H]2c2coc3ccc(Br)cc3c2=O)C(=O)N1c1ccccc1` (relative stereo), the negative logarithm of the IC50 (pIC50) in the assay with PC-3 was 4.88; with A549, 4.77; with Caco-2 it was 4.69; in the assay with THP-1, 4.65.

In the case of `COC(=O)[C@H]1C[C@@H](c2coc3ccc(Cl)cc3c2=O)N(c2ccccc2)O1` (relative stereo), the pIC50 in the assay with PC-3, in the assay on A549, in the assay with Caco-2 and in the assay with THP-1 was under 4.22 throughout.

On to `COC(=O)[C@@]1(C)C[C@@H](c2coc3ccc(C)cc3c2=O)N(c2ccccc2)O1` (relative stereo), for which the negative-log IC50 (pIC50) in the assay on PC-3 was under 4.22; in the assay with A549, 6.15; in the assay with Caco-2 it was 4.71; in the assay on THP-1, 5.14. Besides, the Activity in the assay with HL-60 [4] was 50.2%; with HL-60 [6] it was 7.9%; with HL-60 [7], 62.9%; with HL-60 [8], 44.6%; in the assay on HL-60 [9], “Dose-dependent effect”; in the assay with HL-60 [11], 92%. Moreover, the Activity is reported as 41.6% in the assay on HL-60 [12]; 53.9% in the assay with HL-60 [13]; 4.9% in the assay on HL-60 [14]; 45.7% in the assay with HL-60 [15]; 36.6% in the assay with HL-60 [16]. Besides, the outcome in the assay with HL-60 [5] and in the assay with HL-60 [10] was Active.

Regarding `O=c1c([C@@H]2C[C@H](c3ccncc3)ON2c2ccccc2)coc2ccccc12` (relative stereo), the pIC50 was 4.34 with PC-3, 4.71 in the assay on A549, 4.43 in the assay with Caco-2 and 4.79 with THP-1.

In the case of `COC(=O)[C@@]1(C)C[C@@H](c2coc3ccc(F)cc3c2=O)N(c2ccccc2)O1` (relative stereo), the pIC50 was 4.50 in the assay with PC-3, 4.69 in the assay on A549, 4.53 in the assay on Caco-2 and 4.33 with THP-1.

As for `Cc1ccc2occ([C@@H]3C[C@H](OCC(C)C)ON3c3ccccc3)c(=O)c2c1` (relative stereo), the pIC50 in the assay on PC-3 was 4.42; in the assay with A549 it was 4.77; in the assay on Caco-2 it was under 4.22; in the assay on THP-1 it was 4.67.

The values above are taken from ChEMBL document CHEMBL3217684, “Synthesis and cytotoxicity evaluation of regioisomeric substituted N-phenyl-3-(chrom-4-one-3-yl)-isoxazolidines: induction of apoptosis through a mitochondrial-dependent pathway” (Medchemcomm, 2013).
